Assay in all cases: DTP human tumour cell line panel, 48 h
In assay [1] the test system is A549 NSCLC.
Assay [2] deals with CCRF-CEM leukemia.
Assay [3] has as its system K-562 leukemia.
In assay [4] the test system is OVCAR-8 ovarian.
The test system of assay [5] is RPMI-8226 leukemia.
In assay [6] the test system is SK-MEL-2 melanoma.
Assay [7] relates to SK-MEL-5 melanoma.
For assay [8], the system named is SR leukemia.
For assay [9], the system named is UACC-257 melanoma.

This is an account of results in PubChem BioAssay (NCI).

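Cells were grown in 96-well plates and exposed to each compound for 48 hours at five concentrations; endpoints were interpolated linearly between bracketing concentrations, or set to the highest concentration if not reached. GI50 is the concentration that inhibits growth by half. TGI is the concentration that stops growth completely.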 Where a SMILES comes first, the peptide text is derived from it. Bridges are numbered along the chain shown (N, C = ends). [ ]: non-standard residue; d: D form. The star is where a group is joined. ξ: configuration not given here. X26 = O=C(/C=C/C=C/C=C/C=C/C=C/C(=O)*)NC1=C(O)CCC1=O; NMeA = CN[C@@H](C)C(=O)O; ξF = NC(Cc1ccccc1)C(=O)O; ξA = CC(N)C(=O)O

As to `COC(=O)CCc1cc(OC)c2c(c1)[C@H](C(=O)OC)[C@@H](c1ccc(O)c(OC)c1)O2`, the TGI was above 100 µM in [1]; above 100 µM in assay [2]; 50.4 µM in [3]; above 100 µM in assay [4]; 55.5 µM in assay [5]; 84.6 µM in [6]. Besides, the TGI is above 100 µM in assay [7], 19.1 µM in assay [8] and above 100 µM in [9].
As to `CCCCn1cnc2c(c(CC#N)nn2-c2ccccc2)c1=N`, the TGI in assay [1] was above 100 µM; in [2] it was above 100 µM; in assay [3], above 100 µM; in assay [4], above 100 µM; in assay [5], 73.4 µM; in assay [6], 62.1 µM. Further, the figures for the TGI in [7] and in assay [9] were 46.7 µM and above 100 µM, respectively.
With `CC(C)=CCC/C(C)=C/COC(C)(C)C1=CCC(C)CC1` (stereo not given) (tested in a mixture with another compound), the total growth inhibition concentration (TGI) in [1] is above 100 µM; in assay [4], above 100 µM; in assay [5] it was above 100 µM; in assay [7], above 100 µM; in assay [8], 36.1 µM; in [9], above 100 µM.
For `Cc1cc2c([N+](=O)[O-])cc3c(c2o1)C(=O)C=CC3=O`, the TGI in [1] was 37.2 µM; in assay [3] it was above 100 µM; in [4], above 55.7 µM; in [5] it was above 100 µM; in assay [6] it was 35.3 µM; in assay [7], 28.1 µM. The TGI was above 76.4 µM in [8] and 7.23 µM in [9].
For the compound `CCOC(=O)c1c(-c2ccccc2)c(-c2ccccc2)cn1C`, the TGI in [1], in assay [2], in [3], in [4], in [6] and in [8] was above 10 µM in each case. The TGI in assay [9] was above 10 µM.
For `CC(C)(C)OC(=O)NCCC(N)=S`, the TGI in [1], in assay [2], in assay [3], in assay [4], in assay [5] and in [7] was above 100 µM throughout. Further, the TGI in assay [8] and in assay [9] was above 100 µM throughout.
As to `CC1CN=C(N(C(=O)Nc2ccc(F)c(Cl)c2)c2ccccc2)S1` (stereo not given), the TGI in [1] was 92.1 µM; in assay [2] it was above 100 µM; in [3], above 100 µM; in [4], 65.7 µM; in assay [5], above 100 µM; in assay [6] it was 32.8 µM. In addition, the results for the TGI in [7] and in [9] were 30 µM and 58.7 µM, respectively.
As to `Clc1ccc(CSCCc2ccncc2)cc1Cl`, the TGI in assay [1] is 96.2 µM; in [2] it was 44.7 µM; in assay [3], 51 µM; in [4], 46 µM; in assay [5], 40.3 µM; in assay [6], 30.8 µM. Further, the TGI was 29.9 µM in assay [7] and above 100 µM in [9].
As to `CCOC(=O)c1nc2ccc(C(F)(F)F)cc2nc1Oc1ccc(C#N)cc1`, the TGI in assay [2] was above 100 µM; in assay [3] it was above 100 µM; in assay [4], 46.4 µM; in assay [5], above 100 µM; in assay [6], 30.5 µM; in assay [7], above 100 µM. The TGI was above 100 µM in assay [8] and 65.8 µM in assay [9].
As for `S=C(/N=c1\sc(Nc2ccc(Cl)cc2)nc2sc3c(c12)CCN(N1CCc2c(sc4nc(Nc5ccc(Cl)cc5)s/c(=N\C(=S)Nc5ccc(Cl)cc5)c24)C1)C3)Nc1ccc(Cl)cc1`, the TGI in assay [1] is above 100 µM; in assay [4] it was above 100 µM; in assay [6] it was 52.2 µM; in assay [9] it was above 100 µM.
As to `Cc1cc(-c2nc3ccccc3s2)ccc1NC(=O)[C@@H](N)CCCCN`, the TGI in assay [1] was 12.7 µM; in assay [2], 22.5 µM; in [3] it was above 54 µM; in assay [4] it was 17.1 µM; in assay [6], 30 µM; in assay [7], 28 µM. The TGI in assay [8] was above 54.7 µM; in [9], 37.8 µM.
Turning to `O=C(Cc1ccccc1)NN1C(=O)/C(=C\c2ccccc2)SC1=Nc1ccccc1`, the TGI in [1], in [4], in assay [6], in assay [7] and in [9] was above 100 µM each time.
As to `O=C(NC(COC(=O)C(Cc1ccccc1)NC(=O)c1ccccc1)Cc1ccccc1)c1ccccc1` (stereo not given), the TGI in [1], in assay [3], in [4], in assay [5], in assay [6] and in assay [8] was above 50 µM in each case. Moreover, the TGI in [9] is above 50 µM.
Consider `COc1cc2cc(Oc3ccc(NC(=O)c4cc(C(F)(F)F)cc(C(F)(F)F)c4)cc3)c(C)nc2cc1OC`, for which the GI50 in assay [1] is 3.08 µM; in assay [2], 2.32 µM; in [3], 2.34 µM; in [5] it was 1.57 µM; in [6], 15.8 µM; in [7], 2.76 µM. For the same compound, the values for the GI50 in assay [8] and in assay [9] were 4.8 µM and 4.07 µM, respectively. The TGI in [1], in assay [2], in assay [3], in assay [5], in [6] and in [7] was above 50 µM each time. For the same compound, the TGI in assay [8] and in assay [9] was above 50 µM throughout.
For `CN(Cc1ccccc1)c1cc(=O)n(C)c(=O)[nH]1`, the TGI in assay [1], in assay [2], in [3], in [4], in assay [5] and in assay [6] was above 100 µM each time. Besides, the TGI in assay [7] and in assay [9] was above 100 µM each time.
With `Oc1[nH]c2ccc(Br)cc2c1N=NC(=S)Nc1ccc(F)cc1`, the TGI came out at 67.3 µM in assay [3]; 19.9 µM in [4]; 25.9 µM in assay [6]; 24.7 µM in [7]; 12.2 µM in [8]; 43 µM in assay [9].
As to `C[C@]12CC[C@@H]3c4ccc(O)cc4CC[C@H]3[C@@H]1C/C(=C\c1ccncc1)[C@@H]2O`, the TGI in [1] was above 100 µM; in assay [2], above 100 µM; in assay [4], 31.7 µM; in assay [5], 24.6 µM; in [6], 37.4 µM; in assay [7], 17.3 µM. Also, the TGI in assay [9] is above 100 µM.
Consider `Nc1ccc(-c2nc3ccccc3s2)cc1C(F)(F)F`, for which the TGI in assay [1] came out at 37.4 µM; in assay [2], 95 µM; in [3], 46.6 µM; in [4] it was 43.1 µM; in assay [5], 44.6 µM; in [6] it was 31.3 µM. For the same compound, the figures for the TGI in [7] and in [9] were 30.6 µM and 29 µM, respectively.
For `CC1NC(=O)[C@H](C)N(C)C(=O)[C@@H]2CCCN2C(=O)[C@@H](NC(=O)C(Cc2ccccc2)NC(=O)/C=C/C=C/C=C/C=C/C=C/C(=O)NC2=C(O)CCC2=O)COC(=O)[C@@H]2CCCN2C1=O` (stereo not given in full) (X26-[ξF]SP[NMeA][ξA]P; ester 2-C), the TGI in [1], in assay [2], in assay [3], in assay [5], in [6] and in assay [7] was above 100 µM each time. Also, the TGI in assay [8] and in [9] was above 100 µM in each case.
On to `Cc1ccc(CC[P+](=O)CCc2ccc(C)nc2)cn1`, for which the TGI in [2], in assay [3], in assay [4], in assay [5], in assay [7] and in assay [8] was above 100 µM each time. Further, the TGI in assay [9] was above 100 µM.
Regarding `Nc1nc(Cl)cc(NCC2(CO)CCC(CCc3ccccc3)C2)n1` (stereo not given), the TGI worked out at 32 µM in assay [1]; 40.1 µM in assay [2]; 41.6 µM in assay [3]; 44 µM in assay [4]; 34.5 µM in [6]; 15.6 µM in assay [7]. In [9], this compound yielded a TGI of 22.6 µM.
As for `O=C(CNc1c(Cl)cccc1Cl)NC1C=Cc2ccc(S(=O)(=O)Nc3c(Cl)cccc3Cl)cc2C1=O` (stereo not given), the TGI in assay [1], in [2], in [3], in assay [4], in assay [5] and in [6] was above 100 µM each time. Moreover, the TGI in assay [8] and in [9] was above 100 µM each time.
In the case of `CC(=O)O[C@H]1C(=O)[C@@]2(C)[C@H]([C@H](OC(=O)c3ccc(F)cc3)[C@]3(O)C[C@H](OC(=O)[C@H](O)[C@@H](NC(=O)c4ccccc4)c4ccccc4)C(C)=C1C3(C)C)[C@]1(OC(C)=O)CO[C@@H]1C[C@@H]2O`, the TGI in [1] was above 25 µM; in [3] it was 0.172 µM; in assay [5], 0.0195 µM; in assay [6], 9.73 µM; in [7] it was above 9.33 µM; in assay [9], above 25 µM.
In the case of `O=C(O)C(SC1=NNC2(C(=O)N1)c1ccccc1-c1ccccc12)SC1=NNC2(C(=O)N1)c1ccccc1-c1ccccc12`, the TGI in assay [1], in [2], in [3], in assay [4], in [5] and in assay [6] was above 10 µM in each case. The TGI in [7] and in assay [9] was above 10 µM in each case.
Turning to `N/C(=N\S(=O)(=O)c1c(C(F)(F)F)cccc1C(F)(F)F)Nc1ccc(Cl)cc1`, the TGI in [1] is above 100 µM; in [3], above 100 µM; in assay [4], 78 µM; in assay [5] it was above 100 µM; in [6], 29.3 µM; in [7], 35.6 µM. The results for the total growth inhibition concentration (TGI) in assay [8] and in [9] were above 100 µM and 47.7 µM, respectively.
Regarding `CCOC(=O)C1(C(=O)OCC)COS(=O)OC1`, the TGI in [1], in assay [2], in assay [3], in [4], in assay [7] and in [8] was above 100 µM each time. In assay [9], the TGI is above 100 µM.
In the case of `Cc1ccc(OCCn2cc(Nc3ccccc3)c(=O)n(CCOc3ccc(C)cc3)c2=O)cc1`, the TGI in [1], in [2], in assay [3], in assay [4], in [5] and in assay [6] was above 100 µM throughout. The TGI in assay [7] and in assay [9] was above 100 µM in each case.
Take `O=c1[nH]cnc2c1ncn2[C@@H]1C[C@@H]1CO`: the TGI in assay [1], in assay [2], in assay [3], in assay [4], in assay [6] and in [7] was above 100 µM throughout. The TGI in assay [8] and in [9] was above 100 µM in each case.
As for `N=C(N)c1ccc(-c2ccc(-c3cccs3)s2)cc1`, the GI50 in assay [4] was 1.79 µM; in assay [5], 0.267 µM; in assay [6] it was 13.4 µM; in [7], 1.6 µM; in assay [9], 1.72 µM. In addition, the TGI in [4] was found to be 4.79 µM; in [5], 2.12 µM; in [6], 32 µM; in assay [7] it was 2.99 µM; in [9], 3.15 µM.
On to `O=[N+]([O-])c1ccc(/C=C/c2cc(-c3ccccc3)nc3ccc4ccccc4c23)cc1`, for which the TGI in [1], in assay [2], in assay [3], in [4], in assay [5] and in assay [7] was above 100 µM in each case. Moreover, the TGI in assay [8] and in [9] was above 100 µM throughout.
On to `N#CCc1nc(-c2ccccc2)n[nH]1`, for which the total growth inhibition concentration (TGI) in assay [1], in [2], in [3], in [4], in [6] and in [7] was above 100 µM in each case. Further, the TGI in [8] and in [9] was above 100 µM each time.

The term TGI denotes the concentration at which net growth stops. A higher TGI goes with less potent growth arrest. As usually defined, the GI50 is the concentration giving 50% growth inhibition.
